Experiments:
CzW1 = molecular target: T1, CzW1 (Chromochloris zofingiensis, UniProt Q5U931); test: HPLC of echinenone and canthaxanthin formed by crude extract; type: biochemical; settings: Fe2+, 2-oxoglutarate, ascorbate, NADPH, ATP; pH 8.0; 30 °C; 3 h
T1 construct: gene bkt/crto
T1 sequence (Q5U931 1-312): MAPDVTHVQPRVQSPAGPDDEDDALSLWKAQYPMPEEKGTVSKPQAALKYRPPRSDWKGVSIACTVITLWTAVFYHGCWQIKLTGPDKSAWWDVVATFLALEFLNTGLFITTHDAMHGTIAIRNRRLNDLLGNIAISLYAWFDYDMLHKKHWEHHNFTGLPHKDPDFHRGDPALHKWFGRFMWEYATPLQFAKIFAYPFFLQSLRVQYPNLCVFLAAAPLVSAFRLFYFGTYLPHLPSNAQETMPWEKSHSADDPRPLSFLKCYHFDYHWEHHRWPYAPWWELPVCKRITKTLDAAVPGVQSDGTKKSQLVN

CrtWBsp = molecular target: T2, CrtWBsp (Brevundimonas sp. NBRC 101024, UniProt Q4W8B8); test: as above; type: biochemical; settings: Fe2+, 2-oxoglutarate, ascorbate, NADPH, ATP; pH 8.0; 30 °C; 3 h
T2 construct: gene crtW
T2 sequence (Q4W8B8 1-244): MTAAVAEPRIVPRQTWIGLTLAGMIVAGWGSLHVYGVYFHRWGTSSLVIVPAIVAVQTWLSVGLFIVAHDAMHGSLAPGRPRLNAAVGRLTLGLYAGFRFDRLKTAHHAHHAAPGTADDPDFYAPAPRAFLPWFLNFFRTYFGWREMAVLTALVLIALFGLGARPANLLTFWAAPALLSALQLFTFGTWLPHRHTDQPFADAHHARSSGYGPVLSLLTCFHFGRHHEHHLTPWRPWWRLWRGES

Structure (SMILES): CC1=C(/C=C/C(C)=C/C=C/C(C)=C/C=C/C=C(C)/C=C/C=C(C)/C=C/C2=C(C)CCCC2(C)C)C(C)(C)CCC1 [β-carotene]
- HPLC of echinenone and canthaxanthin formed by crude extract (CzW1): canthaxanthin was only detected in enzymatic solution containing protein extracts from E. coli with pCrtWBsp and pCzW1
- HPLC of echinenone and canthaxanthin formed by crude extract (CrtWBsp): β-carotene ketolase from p30CrtWBsp was more efficient in the production of echinenone and canthaxanthin

Reference: publication PMC10891602, “Improvement of Carotenoids’ Production by Increasing the Activity of Beta-Carotene Ketolase with Different Strategies” (Microorganisms, 2024)
